{"source": "patent US12194033B2", "about": "“Glycine receptor modulators and methods of use” (University of Pittsburgh—Of the Commonwealth System of …, priority 2017, dated 2025)", "key": {"[1]": {"system": "chimera ELIC-α3GlyR containing the α3GlyR TMD", "test": "Electrophysiology on Xenopus laevis oocytes, chimera", "assay_type": "cell-based", "settings": "EC2 agonist, 10 μM compound", "procedure": "MJPY1 potentiates α3GlyR through binding to the THC-binding site near S296 in the transmembrane domain (TMD). Like α3GlyR, but unlike ELIC, the chimera ELIC-α3GlyR containing the α3GlyR TMD is potentiated by MJPY1. The S296A mutation in α3GlyR abolishes compound 1 (MJPY1)'s potentiation. Data were recorded at EC2 agonist for the indicated channels and are reported as the ratio of currents in the presence (I) and absence (Io) of 10 μM compound 1 (MJPY1). Error bars represent SEM (n≥4 oocytes)."}, "[2]": {"system": "C57Bl/6J mice", "test": "Hargreaves test in C57Bl/6J mice", "assay_type": "in vivo", "procedure": "In vivo mouse behavior tests validated the analgesic action of the representative compounds in response to inflammation. Responses of C57Bl/6J mice to the Hargreaves test (Pain, 32:77-88, 1988) were assessed pre- and post-application of compound 1 alone (white circles, application time=0 hours). […] Error bars designate the standard error of the mean (n≥4)."}, "[3]": {"system": "CD1 mice", "test": "Hargreaves test under CFA-induced hyperalgesic conditions in CD1 mice", "assay_type": "in vivo", "procedure": "Under CFA-induced hyperalgesic conditions, the maximum possible effect, % MPE=(response−baseline)/(cut-off time−baseline), was measured for the application of compound 1 alone (0.05 mg/kg, blue, n=12; 0.01 mg/kg, orange, n=4), morphine alone (0.1 mg/kg, green, n=8), and compound 1 with morphine at three different dosage combinations: 0.05 mg/kg compound 1 with 0.1 mg/kg morphine (light blue, n=6), 0.01 mg/kg compound 1 with 0.1 mg/kg morphine (pink, n=10), and 0.01 mg/kg compound 1 with 0.01 mg/kg morphine (red, n=4). […] Error bars designate the standard error of the mean.\n0.05 mg/kg compound 1 was tested for tolerance in CFA-treated mice (red). Under CFA-induced hyperalgesic conditions (24 hours post-application of CFA), 0.05 mg/kg compound 1 was administered to CD1 mice and responses to the Hargreaves test were measured immediately after the initial injection (application time=0) and again after a repeated dose given 1.5 hours (FIG. 7A) or 24 hours (FIG. 7B) after the effects of the first dose wore off. The black circles represent the responses of naïve mice (i.e., no administration of compound 1 or CFA), and the red circles represent the responses of mice receiving compound 1 under CFA-induced hyperalgesic conditions. […] Error bars designate the standard error of the mean (n=4).\nResponses of CD1 mice to the Hargreaves test were assessed after application of 0.1 mg/kg of the indicated compounds (black) or vehicle (white) under CFA-induced hyperalgesic conditions as shown in FIGS. 8A-8H. The assessed compounds were compounds 1 (8A), 2 (8B), 3 (8C), 4 (8D), 5 (8E), 6 (8F), 7 (8G), and 8 (8H). […] Error bars designate the standard error of the mean (n≥4).\nDose response curves from the Hargreaves test in mice with a CFA-inflamed left hind paw at 1.5 and 2 hr after intraperitoneal injection of compound 1. Percent Maximum Possible Effect (% MPE) was calculated from paw withdrawal latencies.\nTolerance to compound 1 (MJPY1) and compound 3 (MJPY2) was measured by repeated dosing in the Hargreaves Test. […] Mice (n=6/group) received repeated i.p. injections of vehicle or 0.1 mg/kg compound 1 (MJPY1) or compound 3 (MJPY2) once a day for 5 days. CFA inflammation was induced on day 4, and PWL was measured 0.5 hr before and every 10 min after treatment on day 5. Data were binned to 30-min blocks (mean±SEM)."}, "[4]": {"biological_target": "T1, CB1 (Homo sapiens, UniProt P21554)", "T1 construct": "expressed in transfected cells", "T1 sequence (P21554 whole entry)": "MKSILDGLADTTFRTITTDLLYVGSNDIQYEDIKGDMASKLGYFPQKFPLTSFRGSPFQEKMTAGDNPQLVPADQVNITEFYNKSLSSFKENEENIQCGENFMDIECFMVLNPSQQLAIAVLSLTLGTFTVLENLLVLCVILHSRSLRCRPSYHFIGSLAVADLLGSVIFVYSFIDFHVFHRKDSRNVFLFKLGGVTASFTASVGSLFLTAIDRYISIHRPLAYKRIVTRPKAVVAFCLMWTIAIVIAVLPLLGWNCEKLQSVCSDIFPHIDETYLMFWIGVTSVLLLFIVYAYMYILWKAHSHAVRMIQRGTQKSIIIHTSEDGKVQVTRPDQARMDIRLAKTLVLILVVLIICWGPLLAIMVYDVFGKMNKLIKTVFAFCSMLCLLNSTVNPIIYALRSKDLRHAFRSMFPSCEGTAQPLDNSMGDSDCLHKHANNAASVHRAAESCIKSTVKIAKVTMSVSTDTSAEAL", "test": "PRESTO-TANGO functional assay CB1", "assay_type": "cell-based", "settings": "against positive controls, n=3", "procedure": "(§1) The specificity of compound 1 (MJPY1) to act only on glycine receptors was determined. No cross reactivity with other commonly known receptors was detected (FIG. 16 and Table 2). […] Activity is reported in relative luminescence units (RLU) as mean and SEM (n=3)."}, "[5]": {"biological_target": "T2, CB2 (Homo sapiens, UniProt P34972)", "T2 construct": "expressed in transfected cells", "T2 sequence (P34972 whole entry)": "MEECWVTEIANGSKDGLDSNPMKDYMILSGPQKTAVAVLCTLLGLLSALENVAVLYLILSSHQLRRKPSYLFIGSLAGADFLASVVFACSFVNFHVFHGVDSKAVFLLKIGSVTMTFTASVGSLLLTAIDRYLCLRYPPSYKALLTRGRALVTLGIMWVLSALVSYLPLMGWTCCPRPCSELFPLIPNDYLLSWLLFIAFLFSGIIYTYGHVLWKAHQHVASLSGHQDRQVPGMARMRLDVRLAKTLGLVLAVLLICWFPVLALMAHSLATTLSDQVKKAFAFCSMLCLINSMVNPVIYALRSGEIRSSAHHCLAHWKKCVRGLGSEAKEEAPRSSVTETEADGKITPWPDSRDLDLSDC", "test": "PRESTO-TANGO functional assay CB2", "assay_type": "cell-based", "settings": "against positive controls, n=3", "procedure": "as §1"}, "[6]": {"biological_target": "4 2-nAChR (Homo sapiens, UniProt P17787+P43681)", "sequence (P43681 29-627 limits assumed)": "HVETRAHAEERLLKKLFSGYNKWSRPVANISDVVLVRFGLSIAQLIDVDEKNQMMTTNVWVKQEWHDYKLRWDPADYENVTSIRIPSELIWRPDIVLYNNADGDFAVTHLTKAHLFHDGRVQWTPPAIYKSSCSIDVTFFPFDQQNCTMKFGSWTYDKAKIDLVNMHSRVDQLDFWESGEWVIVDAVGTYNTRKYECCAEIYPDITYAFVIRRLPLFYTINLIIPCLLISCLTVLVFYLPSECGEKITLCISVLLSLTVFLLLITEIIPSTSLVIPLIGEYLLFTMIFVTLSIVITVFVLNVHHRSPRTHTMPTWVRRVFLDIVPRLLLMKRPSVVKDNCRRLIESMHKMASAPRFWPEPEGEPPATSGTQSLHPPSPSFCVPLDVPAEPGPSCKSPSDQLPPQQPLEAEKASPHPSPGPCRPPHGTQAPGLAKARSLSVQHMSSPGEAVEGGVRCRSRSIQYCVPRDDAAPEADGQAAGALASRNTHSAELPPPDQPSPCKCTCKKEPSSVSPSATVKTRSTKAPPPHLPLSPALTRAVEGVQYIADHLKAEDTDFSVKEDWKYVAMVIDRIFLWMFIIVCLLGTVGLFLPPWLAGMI", "sequence (P17787 26-502)": "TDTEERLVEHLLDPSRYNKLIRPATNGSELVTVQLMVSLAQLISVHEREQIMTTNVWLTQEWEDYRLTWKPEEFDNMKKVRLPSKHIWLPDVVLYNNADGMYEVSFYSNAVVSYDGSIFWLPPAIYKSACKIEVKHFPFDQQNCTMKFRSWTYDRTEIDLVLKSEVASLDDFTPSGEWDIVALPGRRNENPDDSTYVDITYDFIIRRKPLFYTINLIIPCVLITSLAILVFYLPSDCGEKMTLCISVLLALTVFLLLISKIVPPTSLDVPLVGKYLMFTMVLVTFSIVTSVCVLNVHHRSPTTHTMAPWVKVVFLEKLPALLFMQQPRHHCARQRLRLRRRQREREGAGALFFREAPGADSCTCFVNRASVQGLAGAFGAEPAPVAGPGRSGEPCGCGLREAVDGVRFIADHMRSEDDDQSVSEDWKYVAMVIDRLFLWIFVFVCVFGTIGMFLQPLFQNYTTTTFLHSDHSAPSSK", "test": "Radioligand binding assay, off-target profiling", "settings": "10 M MJPY1, mean, n = 4"}, "[7]": {"biological_target": "T3, 5-HT3R (Homo sapiens, UniProt P46098)", "T3 sequence (P46098 24-478)": "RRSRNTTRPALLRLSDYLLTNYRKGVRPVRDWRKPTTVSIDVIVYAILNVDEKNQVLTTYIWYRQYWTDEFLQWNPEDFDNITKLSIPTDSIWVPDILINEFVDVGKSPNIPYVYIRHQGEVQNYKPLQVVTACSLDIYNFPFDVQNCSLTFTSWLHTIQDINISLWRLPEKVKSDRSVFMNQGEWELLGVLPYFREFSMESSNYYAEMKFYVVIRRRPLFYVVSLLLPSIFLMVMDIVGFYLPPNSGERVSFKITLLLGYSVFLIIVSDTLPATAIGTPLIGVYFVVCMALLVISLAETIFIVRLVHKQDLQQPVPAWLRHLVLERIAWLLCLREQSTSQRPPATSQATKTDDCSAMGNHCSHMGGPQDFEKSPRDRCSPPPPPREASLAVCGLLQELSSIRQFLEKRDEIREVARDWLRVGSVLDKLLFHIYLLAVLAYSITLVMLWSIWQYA", "test": "Radioligand binding assay, off-target profiling", "settings": "10 M MJPY1, mean, n = 4"}, "[8]": {"biological_target": "DOR (Homo sapiens, UniProt P41143)", "sequence (P41143 whole entry)": "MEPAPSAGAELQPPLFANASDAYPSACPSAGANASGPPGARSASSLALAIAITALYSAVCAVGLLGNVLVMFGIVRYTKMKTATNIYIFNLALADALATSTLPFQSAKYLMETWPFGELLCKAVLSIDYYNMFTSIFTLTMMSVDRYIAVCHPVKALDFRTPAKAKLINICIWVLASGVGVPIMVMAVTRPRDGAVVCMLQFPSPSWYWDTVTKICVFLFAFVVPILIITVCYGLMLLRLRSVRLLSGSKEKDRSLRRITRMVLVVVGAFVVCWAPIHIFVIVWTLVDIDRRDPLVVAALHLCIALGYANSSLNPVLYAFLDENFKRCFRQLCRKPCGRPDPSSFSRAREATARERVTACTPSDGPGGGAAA", "test": "Radioligand binding assay, off-target profiling", "settings": "10 M MJPY1, mean, n = 4"}, "[9]": {"biological_target": "MOR (Homo sapiens, UniProt P35372)", "sequence (P35372 whole entry)": "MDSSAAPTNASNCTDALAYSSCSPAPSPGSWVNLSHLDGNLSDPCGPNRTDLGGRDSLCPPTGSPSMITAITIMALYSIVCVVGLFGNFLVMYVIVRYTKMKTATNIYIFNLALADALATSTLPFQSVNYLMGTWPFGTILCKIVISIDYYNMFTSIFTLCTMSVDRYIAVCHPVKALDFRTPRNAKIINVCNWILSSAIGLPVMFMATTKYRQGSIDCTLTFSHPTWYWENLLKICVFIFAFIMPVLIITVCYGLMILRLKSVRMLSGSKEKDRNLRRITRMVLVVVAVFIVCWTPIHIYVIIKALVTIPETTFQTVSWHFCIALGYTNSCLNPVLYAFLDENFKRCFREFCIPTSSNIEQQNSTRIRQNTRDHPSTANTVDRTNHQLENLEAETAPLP", "test": "Radioligand binding assay, off-target profiling", "settings": "10 M MJPY1, mean, n = 4"}, "[10]": {"system": "NMDAR", "test": "Radioligand binding assay, off-target profiling", "settings": "10 M MJPY1, mean, n = 4"}}, "note": "“And” between values parts separate entries of the source, which are not always exact repeats. Identical values can stand only once.", "data": [{"smiles": "NC(=O)c1cccc(CNC(=O)c2ccc3c4c(cccc24)CC3)c1", "note": "[compound 1, N-[(3-carbamoylphenyl)-methyl]-1,2-dihydroacenaphthylene-5-carboxamide]", "values": [{"measurement": "potentiation of chimera ELIC-α3GlyR (I/Io)", "setting": "[1]", "value": "potentiated"}, {"measurement": "response time for paw withdrawal", "setting": "[2]; maximum CFA-induced hyperalgesic conditions (24 hours post CFA)", "value": "increase in response time"}, {"measurement": "response time for paw withdrawal", "setting": "[2]; normal nociceptive conditions", "value": "no significant effect"}, {"measurement": "tolerance (time to paw withdrawal, first vs second dosing)", "setting": "[3]; 0.05 mg/kg, CD1 mice, CFA, repeated dose 1.5 or 24 hours after first dose wore off", "value": "No tolerance"}, {"measurement": "tolerance after repeated dosing (PWL)", "setting": "[3]; 0.1 mg/kg i.p. once a day for 5 days, CFA on day 4", "value": "negligible tolerance"}, {"measurement": "response time for paw withdrawal compared to vehicle", "setting": "[3]; 0.1 mg/kg, CD1 mice, CFA-induced hyperalgesic conditions", "value": "increase in the response time"}, {"measurement": "EC50 for inflammatory pain (% MPE dose response, Hill fit)", "setting": "[3]; CFA-inflamed left hind paw, 1.5 and 2 hr after intraperitoneal injection (both time points), CD1 mice", "value": "~0.030 mg/kg and ~0.03 mg/kg"}, {"measurement": "agonist or antagonist activity on CB1 (RLU)", "setting": "[4]", "value": "no agonist (top) or antagonist (bottom) activity"}, {"measurement": "agonist or antagonist activity on CB2 (RLU)", "setting": "[5]", "value": "no agonist (top) or antagonist (bottom) activity"}, {"measurement": "% Inhibition 4 2-nAChR", "setting": "[6]", "value": "−1.8", "unit": "%"}, {"measurement": "% Inhibition 5-HT3R", "setting": "[7]", "value": "−5.7", "unit": "%"}, {"measurement": "% Inhibition DOR", "setting": "[8]", "value": 7.1, "unit": "%"}, {"measurement": "% Inhibition MOR", "setting": "[9]", "value": 20.6, "unit": "%"}, {"measurement": "% Inhibition NMDAR", "setting": "[10]", "value": "−2.4", "unit": "%"}]}]}
